Laboratory results from patent US5001048A (priority 1987, dated 1991).
Where “and” joins values, the source holds several entries; their conditions need not be identical. Identical values can stand only once. Like-named read-outs stand apart in the source and are kept apart here.

Columns and labels:
[1] = test system: acetylcholine receptor (AChR); format: binding, Electrophorus electricus; conditions: for % Activity Increase: 24 to 48 hours after immobilization, over nondetergent containing membrane; for stabilization of AChR activity in the membrane (in words): retention of binding activity at immobilization and after storage
[2] = test system: immobilized acetylcholine receptor (AChR); assay: AChR sensor alternating current impedance response to agent challenge; format: binding, Electrophorus electricus; conditions: for AChR sensor response: 50 to 100 uL
Procedure: (§1) All measurements utilized wetted biosensors (i.e., sensors presoaked in deionized water and test buffer). The biosensor was washed with deionized water to a constant output value (that is, it maintained the same impedance value upon further washing). This established a baseline value for the sensor in absence of ligand. Test samples in buffer were then added. Output (changes in impedance, etc) was recorded as a function of time.
(§2) Two approaches were used to evaluate the functionality of the two types (i.e., receptor and antibody-based) of biosensors. In the first approach, measurements were taken sequentially on control and test sensors ("chips") and compared. This approach can be done quickly for rapid evaluation of a sensor (FIGS. 1 and 3). However, background (i.e., non specific binding to the sensor) is not subtracted out automatically. […] This allows for simultaneous challenge (i.e., challenge of both the control and the receptor-containing biosensor at the same time) and background is automatically subtracted out.
(§3) In the case in which sequential measurements were used, alternating current measurements were made on the sensors, and changes were recorded in impedance (measured in ohms), capacitance or phase angle. Samples in volumes of 5 to 200 microliters (ul) were analyzed; […].
(§4) Typically, a sample to be tested (i.e., one thought to contain an analyte of interest) was applied to a sensor which had been previously equilibrated with deionized water and readings of output impedance from the sensor were taken. Equilibration to constant readings occurred within 2 to 10 sec. Readings remained stable for at least the 5 minutes during which the output was routinely monitored. The sensor was then washed with deionized water to background equilibrium, sample was again added and readings were taken. In each case 2 to 5 cycles were carried out in this way.

[3] = Control sensor (same formulation, no AChR added) impedance response to agent challenge; conditions: 50 to 100 uL
Procedure: as §1, §2, §3, §4
^b Control sensor is the same formulation as AChR but with no AChR

CCCCCCCC[N+](C)(C)CCCS(=O)(=O)[O-] [Zwittergent ™ 3-08, N-octyl-N-N dimethyl-3-amino-1-propane sulfonate]
% Activity Increase ([1]; detergent 1.0% by volume): 55% and 30%
% Activity Increase ([1]; detergent 2.0% by volume): 55% and 38%

C[C@H](CCC(=O)O)[C@H]1CC[C@H]2[C@@H]3[C@H](O)C[C@@H]4C[C@H](O)CC[C@]4(C)[C@H]3C[C@H](O)[C@]12C [Sodium cholate, sodium cholate]
% Activity Increase ([1]; detergent 1.0% by volume): 110%
% Activity Increase ([1]; detergent 2.0% by volume): 145%
stabilization of AChR activity in the membrane (in words) [1]: best stabilizing detergents

CCCCCCCCCCCCCCCC[N+](C)(C)C.[Br-] [CTAB, cetyltrimethylammonium bromide]
% Activity Increase ([1]; detergent 0.5% by volume): 4%
% Activity Increase ([1]; detergent 1.0% by volume): 18%
% Activity Increase ([1]; detergent 2.0% by volume): 28%

octylphenoxy polyethoxyethanol [Triton ™ X-100]
% Activity Increase ([1]; detergent 0.1% by volume): 12%
% Activity Increase ([1]; detergent 0.5% by volume): 55%
% Activity Increase ([1]; detergent 1.0% by volume): 85%
% Activity Increase ([1]; detergent 2.0% by volume): 110%
stabilization of AChR activity in the membrane (in words) [1]: best stabilizing detergents

glucose
% Change of AChR sensor with respect to control ([2]; agent 0.5 ug/ml): 3%
AChR sensor response ([2]; agent 0.5 ug/ml): 29 K.OMEGA.
% Change of AChR sensor with respect to control ([2]; agent 5 ug/ml): 0%
AChR sensor response ([2]; agent 5 ug/ml): 33 K.OMEGA.
% Change of AChR sensor with respect to control ([2]; agent 50 ug/ml): 6%
AChR sensor response ([2]; agent 50 ug/ml): 35 K.OMEGA.
% Change of AChR sensor with respect to control ([2]; agent 500 ug/ml): 5%
AChR sensor response ([2]; agent 500 ug/ml): 61 K.OMEGA.
change in resistance between control and AChR sensors (in words) ([2]; dose-response, Table 5): no change
Control sensor response ([3]; agent 0.5 ug/ml): 28 K.OMEGA.
Control sensor response ([3]; agent 5 ug/ml): 33 K.OMEGA.
Control sensor response ([3]; agent 50 ug/ml): 33 K.OMEGA.
Control sensor response ([3]; agent 500 ug/ml): 58 K.OMEGA.
